# Measured values taken from patent publication US6984632B1, “Complexes of paroxetine, with cyclodextrins or cyclodextrin derivatives” (Italfarmaco S.p.A., priority 1999, dated 2006).
# Counter-ions that a name gives are not always drawn.
# Legend:
# Type in all cases: physicochemical
# [1] = Solubility in water of complex of Example 9 vs non-complexed paroxetine base; conditions: thermodynamic from solid; deionised water, room temperature, 4 hours stirring, spectrophotometry at 293 nm; read-out: solubility (content of paroxetine base in the solution)
# Method: 5 g of the product of Example 9 were added to 10 ml of deionised water and kept under stirring for 4 hours at room temperature.
# The suspension was then filtered through a cellulose acetate filter in order to remove the undissolved product.
# The solution was analysed by 293 nm spectrophotometry against a standard solution of paroxetine base.
# [2] = Stability at 60° C., visual examination
# Method: About 200 mg of paroxetine base and 1 g of the complex of Example 9 (corresponding to about 180 mg of paroxetine base) have each been introduced in a neutral white glass containers and stored, opened, in an oven at 60° C.
# The product in the two containers has been visually examined after 48 hours of storage.
# [3] = Solubility in water of complexes of Examples 1-5 vs non-complexed paroxetine HCl; conditions: thermodynamic from solid; deionized water, 25° C., 24 hours stirring, spectrophotometry at 295 nm
# Method: A solubility test was carried out on an amount of the complexes of Examples 1 to 5 corresponding 500 mg of paroxetine HCl and, as a comparison, on 500 mg of non-complexed paroxetine HCl.
# Each sample was introduced into a container containing 5 ml of deionized water. The containers, closed with a plug were then set under stirring in a thermostatic bath at 25° C. for 24 hours.
# The obtained suspensions were then filtered through a cellulose acetate filter and analysed by spectrophotometry at 295 nm, in comparison with a standard solution of paroxetine.
# The results obtained are reported in FIG. 1 wherein the solubility of paroxetine HCl (in mg/ml) is represented as a function of the molar ratio between β-cyclodextrin and paroxetine HCl.
solubility at 4 h [1],"visual appearance ([2]; 48 h 60° C., open glass container)",visual appearance ([2]; Initial),solubility at 24 h [3],Structure (SMILES)
300 µg/mL,Brown liquid,Straw-Yellow liquid,,"Fc1ccc([C@@H]2CCNC[C@H]2COc2ccc3c(c2)OCO3)cc1 [Paroxetine base, Paroxetine]"
,,,5000 µg/mL,"Fc1ccc([C@@H]2CCNC[C@H]2COc2ccc3c(c2)OCO3)cc1 [non-complexed paroxetine HCl, paroxetine HCl]"
